Source: article PMC7914897, “Cytotoxic Potential of a-Azepano- and 3-Amino-3,4-SeCo-Triterpenoids” (International Journal of Molecular Sciences, 2021)
Like-named read-outs stand apart in the source and are kept apart here.

Experiments:
Leukemia subpanel = assay: cells; conditions: Homo sapiens
OVCAR-3 (Ovarian cancer) = assay: cells; conditions: Homo sapiens
Renal Cancer subpanel = assay: NCI-60 screen, subpanel; conditions: Homo sapiens
[1] = test system: A549/ATCC (NSC lung cancer); assay: NCI-60 screen (SRB, 48 h); conditions: Homo sapiens
HOP-62 (NSC lung cancer) = assay: NCI-60 screen (SRB, 48 h); conditions: Homo sapiens
[2] = test system: NCI-H226 (NSC lung cancer); assay: NCI-60 screen (SRB, 48 h); conditions: Homo sapiens
[3] = test system: NCI-H23 (NSC lung cancer); assay: NCI-60 screen (SRB, 48 h); conditions: Homo sapiens
[4] = test system: NCI-H322M (NSC lung cancer); assay: NCI-60 screen (SRB, 48 h); conditions: Homo sapiens
[5] = test system: NCI-H522 (NSC lung cancer); assay: NCI-60 screen (SRB, 48 h); conditions: Homo sapiens
COLO 205 (Colon cancer) = assay: NCI-60 screen (SRB, 48 h); conditions: Homo sapiens
HCC-2998 (Colon cancer) = assay: NCI-60 screen (SRB, 48 h)
HCT-15 (Colon cancer) = assay: NCI-60 screen (SRB, 48 h); conditions: Homo sapiens
SF-268 (CNS cancer) = assay: NCI-60 screen (SRB, 48 h); conditions: Homo sapiens
SNB-19 (CNS cancer) = assay: NCI-60 screen (SRB, 48 h); conditions: Homo sapiens
SK-MEL-5 (Melanoma) = assay: NCI-60 screen (SRB, 48 h); conditions: Homo sapiens
UACC-257 (Melanoma) = assay: NCI-60 screen (SRB, 48 h); conditions: Homo sapiens
UACC-62 (Melanoma) = assay: NCI-60 screen (SRB, 48 h); conditions: Homo sapiens
IGROV1 (Ovarian cancer) = assay: NCI-60 screen (SRB, 48 h); conditions: Homo sapiens
OVCAR-5 (Ovarian cancer) = assay: NCI-60 screen (SRB, 48 h); conditions: Homo sapiens
OVCAR-8 (Ovarian cancer) = assay: NCI-60 screen (SRB, 48 h); conditions: Homo sapiens
CAKI-1 (Renal cancer) = assay: NCI-60 screen (SRB, 48 h); conditions: Homo sapiens
TK-10 (Renal cancer) = assay: NCI-60 screen (SRB, 48 h); conditions: Homo sapiens
PC-3 (Prostate cancer) = assay: NCI-60 screen (SRB, 48 h); conditions: Homo sapiens
DU-145 (Prostate cancer) = assay: NCI-60 screen (SRB, 48 h); conditions: Homo sapiens
[6] = test system: MDA-MB-31/ATCC (Breast cancer); assay: NCI-60 screen (SRB, 48 h); conditions: Homo sapiens
HS 578T (Breast cancer) = assay: NCI-60 screen (SRB, 48 h); conditions: Homo sapiens
[7] = test system: panel of approximately 60 cancer cell lines; assay: NCI-60 screen (SRB, 48 h), full panel

For `C=C(C)[C@@H]1CC[C@]2(C)[C@H](CC=C3[C@@H]4[C@@H](C)[C@H](C)CC[C@]4(CO)CC[C@]32C)[C@@]1(C)CCCN` [Compound 19], the IC (TGI) (Leukemia subpanel; 48 h, read-out: TGI MG_MID) was 3.81 µM, the GI50 (Leukemia subpanel; read-out: GI50 MG_MID) was 1230 nM and the CC50 (Leukemia subpanel; read-out: LC50 MG_MID) was 33.2 µM. It also gave a GI50 (OVCAR-3 (Ovarian cancer); OVCAR-3) of 930 nM, an IC (TGI) (OVCAR-3 (Ovarian cancer); OVCAR-3, 48 h, read-out: TGI) of 1.79 µM and a CC50 (OVCAR-3 (Ovarian cancer); OVCAR-3, read-out: LC50) of 3.44 µM. The IC (TGI) (Renal Cancer subpanel; 48 h, read-out: TGI MG_MID) was 4.63 µM, the GI50 (Renal Cancer subpanel; read-out: GI50 MG_MID) was 1560 nM and the CC50 (Renal Cancer subpanel; read-out: LC50 MG_MID) was 13.3 µM. The GI50 ([1]; A549) was 1590 nM, the IC (TGI) ([1]; A549, 48 h, read-out: TGI) was 5.11 µM and the CC50 ([1]; A549, read-out: LC50) was greater than 50 µM. It also gave a GI50 (HOP-62 (NSC lung cancer); HOP-62) of 1080 nM, an IC (TGI) (HOP-62 (NSC lung cancer); HOP-62, 48 h, read-out: TGI) of 2.36 µM and a CC50 (HOP-62 (NSC lung cancer); HOP-62, read-out: LC50) greater than 50 µM. The GI50 ([2]; NCI-H226) was 6.72 µM, the IC (TGI) ([2]; NCI-H226, 48 h, read-out: TGI) was 18.3 µM and the CC50 ([2]; NCI-H226, read-out: LC50) was 49.9 µM. The GI50 ([3]; NCI-H23) was 1340 nM, the IC (TGI) ([3]; NCI-H23, 48 h, read-out: TGI) was 4 µM and the CC50 ([3]; NCI-H23, read-out: LC50) was 17.5 µM. It also gave a GI50 [4] of 1740 nM, an IC (TGI) ([4]; 48 h, read-out: TGI) of 6.38 µM and a CC50 ([4]; read-out: LC50) of 18.6 µM. It also gave a GI50 ([5]; NCI-H522) of 1040 nM, an IC (TGI) ([5]; NCI-H522, 48 h, read-out: TGI) of 2.17 µM and a CC50 ([5]; NCI-H522, read-out: LC50) of 4.54 µM. The GI50 (COLO 205 (Colon cancer); COLO 205) was 900 nM, the IC (TGI) (COLO 205 (Colon cancer); COLO 205, 48 h, read-out: TGI) was 1.94 µM and the CC50 (COLO 205 (Colon cancer); COLO 205, read-out: LC50) was 4.17 µM. For the same molecule, the “Growth % of the Most Sensitive Cell Lines” value (HCC-2998 (Colon cancer); HCC-2998, 1 dose 10 µM) was −93.35%, the GI50 (HCC-2998 (Colon cancer); Homo sapiens, HCC 2998) was 870 nM and the IC (TGI) (HCC-2998 (Colon cancer); Homo sapiens, HCC 2998, 48 h, read-out: TGI) was 1.62 µM. It also gave a CC50 (HCC-2998 (Colon cancer); Homo sapiens, HCC 2998, read-out: LC50) of 3.02 µM, a GI50 (HCT-15 (Colon cancer); HCT-15) of 840 nM and an IC (TGI) (HCT-15 (Colon cancer); HCT-15, 48 h, read-out: TGI) of 1.76 µM. For the same molecule, the CC50 (HCT-15 (Colon cancer); HCT-15, read-out: LC50) was 3.69 µM, the GI50 (SF-268 (CNS cancer); SF-268) was 1220 nM and the IC (TGI) (SF-268 (CNS cancer); SF-268, 48 h, read-out: TGI) was 2.69 µM. The CC50 (SF-268 (CNS cancer); SF-268, read-out: LC50) was 14.8 µM, the GI50 (SNB-19 (CNS cancer); SNB-19) was 2140 nM and the IC (TGI) (SNB-19 (CNS cancer); SNB-19, 48 h, read-out: TGI) was 8.11 µM. For the same molecule, the CC50 (SNB-19 (CNS cancer); SNB-19, read-out: LC50) was 25 µM, the GI50 (SK-MEL-5 (Melanoma); SK-MEL-5) was 910 nM and the IC (TGI) (SK-MEL-5 (Melanoma); SK-MEL-5, 48 h, read-out: TGI) was 1.65 µM. It also gave a CC50 (SK-MEL-5 (Melanoma); SK-MEL-5, read-out: LC50) of 3000 nM, a GI50 (UACC-257 (Melanoma); UACC-257) of 1070 nM and an IC (TGI) (UACC-257 (Melanoma); UACC-257, 48 h, read-out: TGI) of 2.21 µM. The CC50 (UACC-257 (Melanoma); UACC-257, read-out: LC50) was 4.68 µM, the GI50 (UACC-62 (Melanoma); UACC-62) was 5.82 µM and the IC (TGI) (UACC-62 (Melanoma); UACC-62, 48 h, read-out: TGI) was 12.6 µM. For the same molecule, the CC50 (UACC-62 (Melanoma); UACC-62, read-out: LC50) was 27.3 µM, the GI50 (IGROV1 (Ovarian cancer); IGROV-1) was 890 nM and the IC (TGI) (IGROV1 (Ovarian cancer); IGROV-1, 48 h, read-out: TGI) was 1.67 µM. It also gave a CC50 (IGROV1 (Ovarian cancer); IGROV-1, read-out: LC50) of 3.14 µM, a GI50 (OVCAR-5 (Ovarian cancer); OVCAR-5) of 1760 nM and an IC (TGI) (OVCAR-5 (Ovarian cancer); OVCAR-5, 48 h, read-out: TGI) of 6.15 µM. For the same molecule, the CC50 (OVCAR-5 (Ovarian cancer); OVCAR-5, read-out: LC50) was 20.9 µM, the GI50 (OVCAR-8 (Ovarian cancer); OVCAR-8) was 1160 nM and the IC (TGI) (OVCAR-8 (Ovarian cancer); OVCAR-8, 48 h, read-out: TGI) was 2.8 µM. For the same molecule, the CC50 (OVCAR-8 (Ovarian cancer); OVCAR-8, read-out: LC50) was greater than 50 µM, the GI50 (CAKI-1 (Renal cancer); CAKI-1) was 1690 nM and the IC (TGI) (CAKI-1 (Renal cancer); CAKI-1, 48 h, read-out: TGI) was 5.58 µM. It also gave a CC50 (CAKI-1 (Renal cancer); CAKI-1, read-out: LC50) of 17.9 µM, a GI50 (TK-10 (Renal cancer); TK-10) of 2210 nM and an IC (TGI) (TK-10 (Renal cancer); TK-10, 48 h, read-out: TGI) of 9.75 µM. The CC50 (TK-10 (Renal cancer); TK-10, read-out: LC50) was 24.6 µM, the GI50 (PC-3 (Prostate cancer); PC-3) was 1650 nM and the IC (TGI) (PC-3 (Prostate cancer); PC-3, 48 h, read-out: TGI) was 7.48 µM. For the same molecule, the CC50 (PC-3 (Prostate cancer); PC-3, read-out: LC50) was 26 µM, the GI50 (DU-145 (Prostate cancer); DU-145) was 1210 nM and the IC (TGI) (DU-145 (Prostate cancer); DU-145, 48 h, read-out: TGI) was 3.01 µM. The CC50 (DU-145 (Prostate cancer); DU-145, read-out: LC50) was 11.3 µM, the GI50 [6] was 960 nM and the IC (TGI) ([6]; 48 h, read-out: TGI) was 1.71 µM. For the same molecule, the CC50 ([6]; read-out: LC50) was 3.04 µM, the GI50 (HS 578T (Breast cancer)) was 990 nM and the IC (TGI) (HS 578T (Breast cancer); 48 h, read-out: TGI) was 2.23 µM. For the same molecule, the CC50 (HS 578T (Breast cancer); read-out: LC50) was 5 µM, the “Positive Cytostatic Effect (cell lines with percent growth 0 to 50 / total)” value ([7]; 1 dose 10 µM) was 20/60 and the “Positive Cytotoxic Effect (cell lines with percent growth < 0 / total)” value ([7]; 1 dose 10 µM) was 28/60. For the same molecule, the “number of cancer cell lines the compound was active against” value ([7]; 1 dose 10 µM) was 45 cell lines, the activity at 10 µM ([7]; Homo sapiens, 48 h, read-out: Mean Growth, %) was -4.29% and the activity at 10 µM ([7]; Homo sapiens, 48 h, read-out: Range of Growth, %) was -99 to 84.5%. The IC (TGI) ([7]; Homo sapiens, 48 h, read-out: TGI MG_MID60, average over all cell lines) was 3.89 µM, the GI50 ([7]; Homo sapiens, read-out: GI50 MG_MID60) was 1420 nM and the GI50 ([7]; Homo sapiens, read-out: GI50 against all human tumor cell lines) was less than 10000 nM. For the same molecule, the GI50 ([7]; Homo sapiens, read-out: GI50 against the most sensitive cell lines) was 200 to 940 nM and the CC50 ([7]; Homo sapiens, read-out: LC50 MG_MID60, average over all cell lines) was 17 µM.
